From patent US9975885B2, “Broad-spectrum non-covalent coronavirus protease inhibitors” (priority 2016, dated 2018)

Tests used:
[1] = test system: Ten CoV 3CL^pro's (FIPV-, PEDV-, NL63-, HKU1-, OC43-, SARS-, HKU4-, HKU5-, HKU9-, IBV-3CL^pro); format: biochemical, coronaviruses (α-, β-, γ-CoV)
HKU5-3CL^pro = HKU5-3CL^pro (Bat coronavirus HKU5 (BtCoV) (BtCoV/HKU5/2004), UniProt P0C6W4); format: biochemical
HKU1-3CL^pro = HKU1-3CL^pro (Human coronavirus HKU1 (isolate N1) (HCoV-HKU1), UniProt P0C6X2); experiment: biochemical
Chain of HKU1-3CL^pro (P0C6X2 3335-3637 limits assumed): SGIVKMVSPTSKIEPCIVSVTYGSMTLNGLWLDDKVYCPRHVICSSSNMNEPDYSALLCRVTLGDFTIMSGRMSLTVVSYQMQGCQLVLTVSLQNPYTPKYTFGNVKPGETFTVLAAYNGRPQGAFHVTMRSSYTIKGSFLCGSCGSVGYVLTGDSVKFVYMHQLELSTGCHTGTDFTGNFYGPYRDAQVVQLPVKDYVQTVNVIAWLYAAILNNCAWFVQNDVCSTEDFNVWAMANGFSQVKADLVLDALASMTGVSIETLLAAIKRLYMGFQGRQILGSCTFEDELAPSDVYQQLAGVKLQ

SARS-3CL^pro = SARS-3CL^pro (Severe acute respiratory syndrome coronavirus (SARS-CoV), UniProt P0C6X7); format: biochemical
HKU4-3CL^pro = HKU4-3CL^pro (Bat coronavirus HKU4 (BtCoV) (BtCoV/HKU4/2004), UniProt P0C6W3); format: biochemical
Chain of HKU4-3CL^pro (P0C6W3 3292-3597 limits assumed): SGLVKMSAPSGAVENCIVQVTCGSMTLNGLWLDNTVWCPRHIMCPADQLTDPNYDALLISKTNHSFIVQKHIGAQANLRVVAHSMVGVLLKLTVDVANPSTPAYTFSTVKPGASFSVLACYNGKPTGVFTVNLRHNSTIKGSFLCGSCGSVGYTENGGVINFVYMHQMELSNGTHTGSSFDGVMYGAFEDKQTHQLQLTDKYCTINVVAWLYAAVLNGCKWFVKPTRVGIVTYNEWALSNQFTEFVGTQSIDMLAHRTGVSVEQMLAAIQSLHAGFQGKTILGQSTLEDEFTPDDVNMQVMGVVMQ

Chain of HKU5-3CL^pro (P0C6W4 3339-3644 limits assumed): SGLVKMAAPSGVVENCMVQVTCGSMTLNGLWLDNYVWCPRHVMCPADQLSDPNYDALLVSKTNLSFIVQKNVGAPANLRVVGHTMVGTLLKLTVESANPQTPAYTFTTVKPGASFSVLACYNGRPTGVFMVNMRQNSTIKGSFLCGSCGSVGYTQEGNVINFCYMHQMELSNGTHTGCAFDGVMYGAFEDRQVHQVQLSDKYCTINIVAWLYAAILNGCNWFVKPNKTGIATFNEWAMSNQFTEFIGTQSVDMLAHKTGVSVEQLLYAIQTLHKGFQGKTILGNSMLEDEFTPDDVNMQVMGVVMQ

| SMILES | inhibition of any 3CL^pro [1] | Gini Coefficient [1] | other results |
| --- | --- | --- | --- |
| CC(C)C(=O)Nc1ccc(N(C(=O)Cn2nnc3ccccc32)C(C(=O)NCc2ccccc2)c2cccc(Cl)c2)cc1 (centres unmarked) [Compound 11, N-(4-(2-(1H-benzo[d][1,2,3]triazol-1-yl)-N-(2-(benzylamino)-1-(3-chlorophenyl)-2-oxoethyl)acetamido)phenyl)isobutyramide] | ≤ 50% |  |  |
| CC(C)C(=O)Nc1ccc(N(C(=O)Cn2nnc3ccccc32)C(C(=O)NCc2ccccc2)c2ccc(Cl)cc2)cc1 (centres unmarked) [Compound 12, N-(4-(2-(1H-benzo[d][1,2,3]triazol-1-yl)-N-(2-(benzylamino)-1-(4-chlorophenyl)-2-oxoethyl)acetamido)phenyl)isobutyramide] |  | 0.37 |  |
| COc1ccc(C(C(=O)NCc2ccccc2)N(C(=O)Cn2nnc3ccccc32)c2ccc(NC(=O)C(C)C)cc2)cc1 (centres unmarked) [Compound 13, N-(4-(2-(1H-benzo[d][1,2,3]triazol-1-yl)-N-(2-(benzylamino)-1-(4-methoxyphenyl)-2-oxoethyl)acetamido)phenyl)isobutyramide] |  | 0.43 | IC50 (HKU5-3CL^pro): 1300 ± 200 nM; Score (performance metric score) [1]: 6.4; IC50 (HKU1-3CL^pro): 2500 ± 400 nM |
| COc1cccc(C(C(=O)NCc2ccccc2)N(C(=O)Cn2nnc3ccccc32)c2ccc(NC(=O)C(C)C)cc2)c1 (centres unmarked) [Compound 14, N-(4-(2-(1H-benzo[d][1,2,3]triazol-1-yl)-N-(2-(benzylamino)-1-(3-methoxyphenyl)-2-oxoethyl)acetamido)phenyl)isobutyramide] |  | 0.33 | IC50 (HKU5-3CL^pro): 2200 ± 300 nM; IC50 HKU5 (HKU5-3CL^pro): low micromolar; IC50 (SARS-3CL^pro): 3500 ± 400 nM; IC50 SARS (SARS-3CL^pro): low micromolar; IC50 (HKU4-3CL^pro): 2400 ± 200 nM; IC50 HKU4 (HKU4-3CL^pro): low micromolar; Score (performance metric score) [1]: 6.6; IC50 (HKU1-3CL^pro): 1800 ± 300 nM; IC50 HKU1 (HKU1-3CL^pro): low micromolar |
| CC(C)C(=O)Nc1ccc(N(C(=O)Cn2nnc3ccccc32)C(C(=O)NCc2ccccc2)c2cccnc2)cc1 (centres unmarked) [Compound 15, N-(4-(2-(1H-benzo[d][1,2,3]triazol-1-yl)-N-(2-(benzylamino)-2-oxo-1-(pyridin-3-yl)ethyl)acetamido)phenyl)isobutyramide] |  | 0.48 | IC50 (HKU5-3CL^pro): 9600 ± 1200 nM; IC50 (SARS-3CL^pro): 10900 ± 1900 nM; IC50 (HKU4-3CL^pro): 4000 ± 400 nM; Score (performance metric score) [1]: 9.7 |
| CC(C)C(=O)Nc1ccc(N(C(=O)Cn2nnc3ccccc32)C(C(=O)NCc2ccccc2)c2ccncc2)cc1 (centres unmarked) [Compound 16, N-(4-(2-(1H-benzo[d][1,2,3]triazol-1-yl)-N-(2-(benzylamino)-2-oxo-1-(pyridin-4-yl)ethyl)acetamido)phenyl)isobutyramide] | ≤ 50% | 0.52 |  |
| CC(C)C(=O)Nc1ccc(N(C(=O)Cc2coc3ccccc23)C(C(=O)NCc2ccccc2)c2cccc(F)c2)cc1 (centres unmarked) [Compound 20, N-(4-(2-(benzofuran-3-yl)-N-(2-(benzylamino)-1-(3-fluorophenyl)-2-oxoethyl)acetamido)phenyl)isobutyramide] | ≤ 50% | 0.39 |  |
| CC(C)(C)NC(=O)C(c1ccsc1)N(C(=O)Cc1csc2ccccc12)c1ccc(NC(=O)C2CC2)cc1 (centres unmarked) [Compound 24, N-(4-(2-(benzo[b]thiophen-3-yl)-N-(2-(tert-butylamino)-2-oxo-1-(thiophen-3-yl)ethyl)acetamido)phenyl)cyclopropanecarboxamide] | ≤ 50% | 0.40 |  |
| CC(C)(C)NC(=O)C(c1ccsc1)N(C(=O)Cc1coc2ccccc12)c1ccc(NC(=O)C2CC2)cc1 (centres unmarked) [Compound 25, N-(4-(2-(benzofuran-3-yl)-N-(2-(tert-butylamino)-2-oxo-1-(thiophen-3-yl)ethyl)acetamido)phenyl)cyclopropanecarboxamide] | ≤ 50% | 0.39 |  |
| CC(C)(C)NC(=O)C(c1ccsc1)N(C(=O)Cc1c[nH]c2ccccc12)c1ccc(NC(=O)C2CC2)cc1 (centres unmarked) [Compound 26, N-(4-(N-(2-(tert-butylamino)-2-oxo-1-(thiophen-3-yl)ethyl)-2-(1H-indol-3-yl)acetamido)phenyl)cyclopropanecarboxamide] | ≤ 50% | 0.46 |  |
| CC(C)C(=O)Nc1ccc(N(C(=O)Cn2nnc3ccccc32)C(C(=O)NCc2ccccc2)c2ccc(N(C)C)cc2)cc1 (centres unmarked) [Compound 52, N-(4-(2-(1H-benzo[d][1,2,3]triazol-1-yl)-N-(2-(benzylamino)-1-(4-(dimethylamino)phenyl)-2-oxoethyl)acetamido)phenyl)isobutyramide] | ≤ 50% | 0.42 |  |
| CC(C)C(=O)Nc1ccc(N(C(=O)Cn2nnc3ccccc32)C(C(=O)NCc2ccccc2)c2ccc(OCCCN(C)C)cc2)cc1 (centres unmarked) [Compound 54, N-(4-(2-(1H-benzo[d][1,2,3]triazol-1-yl)-N-(2-(benzylamino)-1-(4-(3-(dimethylamino)propoxy)phenyl)-2-oxoethyl)acetamido)phenyl)isobutyramide] |  | 0.59 | IC50 (SARS-3CL^pro): 27300 ± 4600 nM; Score (performance metric score) [1]: 19.8; IC50 (HKU1-3CL^pro): 20000 ± 2900 nM |
| CC(C)C(=O)Nc1ccc(N(C(=O)Cn2nnc3ccccc32)C(C(=O)NCc2ccccc2)c2ccc(Cl)c(F)c2)cc1 (centres unmarked) [Compound 55, N-(4-(2-(1H-benzo[d][1,2,3]triazol-1-yl)-N-(2-(benzylamino)-1-(4-chloro-3-fluorophenyl)-2-oxoethyl)acetamido)phenyl)isobutyramide] |  | 0.50 | IC50 (SARS-3CL^pro): 800 ± 100 nM; Score (performance metric score) [1]: 9.8 |
| CC(C)C(=O)Nc1ccc(N(C(=O)C2CCN(C(=O)OC(C)(C)C)CC2)C(C(=O)NCc2ccccc2)c2cccc(F)c2)cc1 (centres unmarked) [Compound 56, tert-butyl 4-((2-(benzylamino)-1-(3-fluorophenyl)-2-oxoethyl)(4-isobutyramidophenyl)carbamoyl) piperidine-1-carboxylate] |  | 0.34 |  |
| Cc1cccc2c(CC(=O)N(c3ccc(NC(=O)C(C)C)cc3)C(C(=O)NCc3ccccc3)c3cccc(F)c3)c[nH]c12 (centres unmarked) [Compound 57, N-(4-(N-(2-(benzylamino)-1-(3-fluorophenyl)-2-oxoethyl)-2-(7-methyl-1H-indol-3-yl)acetamido)phenyl)isobutyramide] | ≤ 50% | 0.38 |  |
| CC(C)C(=O)Nc1ccc(N(C(=O)CCc2nc3ccccc3[nH]2)C(C(=O)NCc2ccccc2)c2cccc(F)c2)cc1 (centres unmarked) [Compound 58, 3-(1H-benzo[d]imidazol-2-yl)-N-(2-(benzylamino)-1-(3-fluorophenyl)-2-oxoethyl)-N-(4-isobutyramidophenyl)propanamide] |  | 0.40 |  |
| Cc1nccn1CCC(=O)N(c1ccc(NC(=O)C(C)C)cc1)C(C(=O)NCc1ccccc1)c1cccc(F)c1 (centres unmarked) [Compound 59, N-(2-(benzylamino)-1-(3-fluorophenyl)-2-oxoethyl)-N-(4-isobutyramidophenyl)-3-(2-methyl-1H-imidazol-1-yl)propanamide] |  | 0.44 |  |
| CC(C)(C)NC(=O)C(c1ccsc1)N(C(=O)C1CCN(C(=O)OC(C)(C)C)CC1)c1ccc(NC(=O)C2CC2)cc1 (centres unmarked) [Compound 60, tert-butyl 4-((2-(tert-butylamino)-2-oxo-1-(thiophen-3-yl)ethyl)(4-(cyclopropanecarboxamido)phenyl)carbamoyl)piperidine-1-carboxylate] | ≤ 50% | 0.60 |  |
| Cc1cccc2c(CC(=O)N(c3ccc(NC(=O)C4CC4)cc3)C(C(=O)NC(C)(C)C)c3ccsc3)c[nH]c12 (centres unmarked) [Compound 61, N-(4-(N-(2-(tert-butylamino)-2-oxo-1-(thiophen-3-yl)ethyl)-2-(7-methyl-1H-indol-3-yl)acetamido)phenyl)cyclopropanecarboxamide] | ≤ 50% | 0.43 |  |
| CC(C)(C)NC(=O)C(c1ccsc1)N(C(=O)CCc1nc2ccccc2[nH]1)c1ccc(NC(=O)C2CC2)cc1 (centres unmarked) [Compound 62, N-(4-(3-(1H-benzo[d]imidazol-2-yl)-N-(2-(tert-butylamino)-2-oxo-1-(thiophen-3-yl)ethyl)propanamido)phenyl)cyclopropanecarboxamide] | ≤ 50% | 0.46 |  |
| Cc1nccn1CCC(=O)N(c1ccc(NC(=O)C2CC2)cc1)C(C(=O)NC(C)(C)C)c1ccsc1 (centres unmarked) [Compound 63, N-(4-(N-(2-(tert-butylamino)-2-oxo-1-(thiophen-3-yl)ethyl)-3-(2-methyl-1H-imidazol-1-yl)propanamido)phenyl)cyclopropanecarboxamide] | ≤ 50% | 0.44 |  |
| COc1cc(N(C(=O)c2c[nH]cn2)C(C(=O)NC(C)(C)C)c2cccnc2)cc(OC)c1OC (centres unmarked) [Compound 69, N-(2-(tert-butylamino)-2-oxo-1-(pyridin-3-yl)ethyl)-N-(3,4,5-trimethoxyphenyl)-1H-imidazole-4-carboxamide] |  | 0.45 |  |
| Cc1cc(N(C(=O)c2c[nH]cn2)C(C(=O)NC(C)(C)C)c2cccnc2)ccc1Cl (centres unmarked) [Compound 70, N-(2-(tert-butylamino)-2-oxo-1-(pyridin-3-yl)ethyl)-N-(4-chloro-3-methylphenyl)-1H-imidazole-4-carboxamide] |  | 0.33 |  |
| CC(C)(C)NC(=O)C(c1cccnc1)N(C(=O)c1c[nH]cn1)c1cccc(C(C)(C)C)c1 (centres unmarked) [Compound 71] |  | 0.30 |  |
